Values of other authors, collected in patent US20120058932A1, “ACTIVE INGREDIENT-PEPTIDE CONSTRUCT FOR EXTRACELLULAR CONCENTRATION” (MAX PLANCK-GESELLSCHAFT ZUR FORDERUNG DER WISSENSCHAFTEN …, priority 2008, published 2012).

Conditions: blood cells vs plasma

C/C=C/C[C@@H](C)[C@@H](O)[C@H]1C(=O)N[C@@H](CC)C(=O)N(C)CC(=O)N(C)[C@@H](CC(C)C)C(=O)N[C@@H](C(C)C)C(=O)N(C)[C@@H](CC(C)C)C(=O)N[C@@H](C)C(=O)N[C@H](COCCO)C(=O)N(C)[C@@H](CC(C)C)C(=O)N(C)[C@@H](CC(C)C)C(=O)N(C)[C@@H](C(C)C)C(=O)N1C [SDZ IMM 125]
Concentration in blood cells relative to the surrounding plasma: approximately 8 ×
